Tested on: male SD rat
Experiment: Gastric safety studies (Ulcer Index)
Format: in vivo
Conditions: daily dose 30 mg/kg body weight oral for 7 days, mean of animals' scores
Protocol: Gastric safety for compounds of this invention was evaluated as follows [Otterness et al., Laboratory Models for Testing Nonsteroidal Anti-inflammatory Drugs in Nonsteroidal Anti-inflammatory Drugs; ed John Wiley & Sons pp 217-227 (1985); Wiley Interscience; New York]: A designated dose of a compound of this invention suspended in 1% methylcellulose solution was administered daily once for 7 days to a male SD rat by oral gavage. The animal was sacrificed and the inner wall of the stomach was examined visually 4 hours after the last administration (the 7th day administration). The gastric safety was assessed by the “Ulcer Index” as defined as the following scores: […]
Score 1: apparently normal stomach.
Score 2: one or more than one ulcer site of pin-point size only.
Score 3: erosions of 2 or fewer than 2, which may be accompanied by ulcers of pin-point size (an erosion is defied by any ulcerative lesion of any dimension greater than 1 mm).
Score 4: erosions more than 2, which may be accompanied by ulcers of pin-point size.
Score 5: erosions accompanied by hemorrhage.
In evaluating the gastric safety of a compound of this invention, usually 8 animals were used. The ulcer index for a compound was calculated by averaging of the ulcer index of each animal. The following Table 5 illustrates gastric safety of some COX-2 selective inhibitors of this invention.

SMILES | Ulcer Index (1˜5)
CC1(C)OC(c2ccc(S(C)(=O)=O)cc2)=C(c2cc(F)cc(F)c2)C1=O [Example 11, 4-(3,5-Difluorophenyl)-2,2-dimethyl-5-{4-(methylsulfonyl)phenyl}-3(2H)-furanone] | 1.8 ± 1.0
CC1(C)OC(c2ccc(S(C)(=O)=O)cc2)=C(c2cccc(F)c2)C1=O [Example 4, 2,2-Dimethyl-4-(3-fluorophenyl)-5-{4-(methylsulfonyl)phenyl}-3(2H)-furanone] | 1.8 ± 0.7

Source: patent US6492416B1, “4,5-diaryl-3(2H)-furanone derivatives as cyclooxygenase-2 inhibitors” (Pacific Corporation, priority 1999, dated 2002)
